Reference: patent US11827639B2, “TDO2 and IDO1 inhibitors” (Genentech, Inc., priority 2017, dated 2023)
pEC50: −log10 of the molar value. Read-outs that look alike come from different tables or passages of the source.

Assays:
IDO1 [1] = target: T1, IDO1 (Homo sapiens, UniProt P14902)
Protocol: (§1) The NFK GreenScreen™ (NTRC, Netherlands) uses a specific chemical probe that binds to N-Formylkynurenine (NFK), a product of tryptophan catabolism facilitated by IDO or TDO and causes fluorescence at 510 nm when excited at 410 nm. […] The assay is multiplexed with Cell Titer-Glo® (Promega) to determine if compounds are cytotoxic. […] Cells are counted on a Vi-Cell (Beckman Coulter). SW48 cells are diluted to 1×10^6 cells/ml in assay media. A172 cells are diluted to 0.24×10^6 cells/ml in assay media. […] 5 ul of assay media containing 1.2 mM tryptophan are added to the SW48 cells for a final concentration of 200 uM tryptophan in each well. 5 ul of assay media containing 600 uM tryptophan and 600 ng/ml IFNγ are added to the A172 cells for a final concentration of 100 uM tryptophan and 100 ng/ml IFNγ in each well. The final DMSO concentration is 0.5%. Cell plates are placed at room temperature in a closed TC hood with the blower off to allow cells to settle for approximately 30 min. Plates are then moved to an incubator set at 37° C., 5% CO2 for 24 hours. After the 24 hour compound incubation, 8 ul of NFK green reagent is added to each well with a Multidrop™ Combi dispenser (Thermo Scientific). Plates are sealed and incubated at 37° C., 5% CO2 for 5 hours, then read on a PHERAstar® (BMG labtech). Data are analyzed by normalizing to DMSO and high inhibitor controls. After the plates have been read for NFK green, 25 ul of Cell Titer-Glo® (Promega) are added to each well, incubated for 15 minutes at room temperature, and read on the Envision (Perkin Elmer). Cell Titer-Glo data are analyzed by normalizing to the DMSO controls. Four-parameter curve fitting is used and EC50 data are reported.

TDO2 [2] = target: T2, TDO2 (Homo sapiens, UniProt P48775); test: TDO2 cell assay (NFK GreenScreen) in SW48 cells; conditions: read-out: TDO2 cell Fluor EC50, NFK GreenScreen fluorescence
Protocol: as §1

TDO2 [3] = target: T2, TDO2; test: cell-based
Protocol: as §1

IDO1 [4] = target: T1, IDO1; test: cell-based
Protocol: as §1

T2 sequence (P48775 whole entry): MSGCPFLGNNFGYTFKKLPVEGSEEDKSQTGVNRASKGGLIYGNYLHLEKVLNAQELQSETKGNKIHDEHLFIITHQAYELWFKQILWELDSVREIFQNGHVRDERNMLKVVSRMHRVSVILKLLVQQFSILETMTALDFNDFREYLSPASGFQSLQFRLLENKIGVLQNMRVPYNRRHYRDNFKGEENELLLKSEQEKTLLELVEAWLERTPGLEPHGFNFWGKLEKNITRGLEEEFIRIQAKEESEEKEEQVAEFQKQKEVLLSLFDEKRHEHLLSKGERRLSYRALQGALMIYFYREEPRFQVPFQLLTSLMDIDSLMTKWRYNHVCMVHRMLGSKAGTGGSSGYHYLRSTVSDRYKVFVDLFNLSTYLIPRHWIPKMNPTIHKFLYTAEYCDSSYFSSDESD
T1 sequence (P14902 whole entry): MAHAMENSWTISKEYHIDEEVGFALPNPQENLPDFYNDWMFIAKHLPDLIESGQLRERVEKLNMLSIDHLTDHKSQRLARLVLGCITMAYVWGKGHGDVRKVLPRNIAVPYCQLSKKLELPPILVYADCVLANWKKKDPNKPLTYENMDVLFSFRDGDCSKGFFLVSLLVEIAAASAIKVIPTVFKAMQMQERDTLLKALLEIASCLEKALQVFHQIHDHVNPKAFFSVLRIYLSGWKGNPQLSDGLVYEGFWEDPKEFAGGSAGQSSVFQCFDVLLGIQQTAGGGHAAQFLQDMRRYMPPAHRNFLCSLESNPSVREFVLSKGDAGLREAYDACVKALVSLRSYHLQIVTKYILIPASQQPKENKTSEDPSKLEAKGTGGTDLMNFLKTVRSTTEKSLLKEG

c1ccc2c(c1)-c1cncn1[C@H]2C1CCCCC1 [Example 19b]
pEC50 (IDO1 [1]): 6.38
pEC50 (TDO2 [2]): 7.48

Cn1cc(C2c3ccccc3-c3cncn32)cn1 (single isomer, unassigned) [Example 79b]
pEC50 (TDO2 [3]): 6.28
pEC50 (IDO1 [4]): 5.07

Fc1cc(F)cc(C2c3ccccc3-c3cncn32)c1 (stereo not shown) [Example 45, 5-(3,5-difluorophenyl)-5H-imidazo[5,1-a]isoindole]
pEC50 (TDO2 [3]): 6.85
pEC50 (IDO1 [4]): 5.72

Cc1cccc(C2c3ccccc3-c3cncn32)c1 (stereo not shown) [Example 21, 5-(m-tolyl)-5H-imidazo[5,1-a]isoindole]
pEC50 (TDO2 [3]): 6.44
pEC50 (IDO1 [4]): 5.01

c1ccc2c(c1)-c1cncn1C2C1CCc2ccncc2C1 (stereo not shown) [Example 46, 5-(5,6,7,8-tetrahydroisoquinolin-7-yl)-5H-imidazo[5,1-a]isoindole]
pEC50 (TDO2 [3]): 7.57
pEC50 (IDO1 [4]): 5.70

OCc1cc(F)cc(C2c3ccccc3-c3cncn32)c1 (single isomer, unassigned) [Example 09b]
pEC50 (TDO2 [3]): 7.02
pEC50 (IDO1 [4]): 5.48

CNS(=O)(=O)c1cccc(C2c3ccccc3-c3cncn32)c1 (stereo not shown) [Example 12, 3-(5H-imidazo[5,1-a]isoindol-5-yl)-N-methylbenzenesulfonamide]
pEC50 (TDO2 [3]): 5.74
pEC50 (IDO1 [4]): 4.96

CS(=O)(=O)N1CCC2(CC1)CC(C1c3ccccc3-c3cncn31)C2 (stereo not shown) [Example 59, 5-(7-(methylsulfonyl)-7-azaspiro[3.5]nonan-2-yl)-5H-imidazo[5,1-a]isoindole]
pEC50 (TDO2 [3]): 6.62
pEC50 (IDO1 [4]): 5.82

NS(=O)(=O)c1cccc(C2c3ccccc3-c3cncn32)c1 (single isomer, unassigned) [Example 07b]
pEC50 (TDO2 [3]): 6.10
pEC50 (IDO1 [4]): 5.19

Fc1cc(C2c3ccccc3-c3cncn32)cc(F)c1F (stereo not shown) [Example 65, 5-(3,4,5-trifluorophenyl)-5H-imidazo[5,1-a]isoindole]
pEC50 (TDO2 [3]): 6.68
pEC50 (IDO1 [4]): 5.72

NC(=O)c1cc(F)cc(C2c3ccccc3-c3cncn32)c1 (stereo not shown) [Example 51, 3-fluoro-5-(5H-imidazo[5,1-a]isoindol-5-yl)benzamide]
pEC50 (TDO2 [3]): 6.92
pEC50 (IDO1 [4]): 5.51

c1ccc2c(c1)-c1cncn1C2C1CCC1 (stereo not shown) [Example 34, 5-cyclobutyl-5H-imidazo[5,1-a]isoindole]
pEC50 (TDO2 [3]): 6.00
pEC50 (IDO1 [4]): 5.62

Fc1cc(Cl)cc(C2c3ccccc3-c3cncn32)c1 (stereo not shown) [Example 40, 5-(3-chloro-5-fluorophenyl)-5H-imidazo[5,1-a]isoindole]
pEC50 (TDO2 [3]): 6.54
pEC50 (IDO1 [4]): 5.42

NS(=O)(=O)N1CC2(CC(C3c4ccccc4-c4cncn43)C2)C1 (stereo not shown) [Example 66, 6-(5H-imidazo[5,1-a]isoindol-5-yl)-2-azaspiro[3.3]heptane-2-sulfonamide]
pEC50 (TDO2 [3]): 5.96
pEC50 (IDO1 [4]): 4.70

O=S1(=O)NCC2CC(C3c4ccccc4-c4cncn43)CCN21 (stereo not shown) [Example 94, 5-(5H-imidazo[5,1-a]isoindol-5-yl)hexahydro-2H-[1,2,5]thiadiazolo[2,3-a]pyridine 1,1-dioxide]
pEC50 (TDO2 [3]): 6.38
pEC50 (IDO1 [4]): 5.15

NC(=O)C1CCC(C2c3ccccc3-c3cncn32)CC1 (single isomer, unassigned) [Example 60d]
pEC50 (TDO2 [3]): 5.00
pEC50 (IDO1 [4]): 4.77

OCc1cc(F)cc(C2c3ccccc3-c3cncn32)c1 (single isomer, unassigned) [Example 09a]
pEC50 (TDO2 [3]): 6.16
pEC50 (IDO1 [4]): 4.68

Cn1cc(C2c3ccccc3-c3cncn32)ccc1=O (single isomer, unassigned) [Example 84b]
pEC50 (TDO2 [3]): 6.44
pEC50 (IDO1 [4]): 4.92

CC(C)CC1c2ccccc2-c2cncn21 (stereo not shown) [Example 53, 5-isobutyl-5H-imidazo[5,1-a]isoindole]
pEC50 (TDO2 [3]): 6.06
pEC50 (IDO1 [4]): 5.36

CS(=O)(=O)N1CC2(CC(C3c4ccccc4-c4cncn43)C2)C1 (single isomer, unassigned) [Example 72a]
pEC50 (TDO2 [3]): 6.14
pEC50 (IDO1 [4]): 5.52
